Read-outs that look alike come from different tables or passages of the source.
Experiments:
Format in all cases: cell-based
[1] = tested on: Malassezia species and Candida species; assay: in vitro micro-dilution susceptibility assay, summary over all isolates; details: negative control
Description: The in vitro susceptibility of Malassezia species to roflumilast was determined utilizing three Candida species as internal control isolates for all testing. These three isolates were C. albicans American Type Culture Collection (ATCC) 90028, C. krusei (ATCC 6258) and C. parapsilosis (ATCC 22019). In addition to testing roflumilast all susceptibility assays were conducted using ketoconazole and hydrocortisone as positive and negative control compounds, respectively. All assays were placed within a humidified incubator set to 32° C. for a total of seven days. Each assay was evaluated after 12 hours of incubation and, every 24 hours post incubation for a total of seven days. The assays were evaluated for visual growth of each pathogen in the no treatment control as well as determination of minimum inhibition concentration (MIC) values. The concentration that provides a 3-log10 CFU/mL reduction in fungal burden from baseline at day 0 was defined as the minimum fungicidal concentration (MHC) and was determined by quantifying fungal burdens found in the microplate at day seven. […]

[2] = tested on: C. albicans (ATCC 90028); assay: in vitro micro-dilution susceptibility assay (method of Rojas); details: Candida albicans, read-out: minimum inhibition concentration (MIC)
Description: (§1) The in vitro susceptibility of Malassezia species to roflumilast was determined utilizing three Candida species as internal control isolates for all testing. These three isolates were C. albicans American Type Culture Collection (ATCC) 90028, C. krusei (ATCC 6258) and C. parapsilosis (ATCC 22019). In addition to testing roflumilast all susceptibility assays were conducted using ketoconazole and hydrocortisone as positive and negative control compounds, respectively. All assays were placed within a humidified incubator set to 32° C. for a total of seven days. Each assay was evaluated after 12 hours of incubation and, every 24 hours post incubation for a total of seven days. The assays were evaluated for visual growth of each pathogen in the no treatment control as well as determination of minimum inhibition concentration (MIC) values. The concentration that provides a 3-log10 CFU/mL reduction in fungal burden from baseline at day 0 was defined as the minimum fungicidal concentration (MHC) and was determined by quantifying fungal burdens found in the microplate at day seven.
(§2) The method of Rojas (Rojas F D, et al. Antifungal susceptibility of Malassezia furfur, Malassezia sympodialis, and Malassezia globose to azole drugs and amphotericin B evaluated using a broth microdilution method. 2014. Medical Mycology. 52:641-646) was used in which the liquid broth medium was RPMI 1640 with added 1.8% glucose, 1% peptone, 0.5% ox-bile, 0.5% malt extract, 1% glycerol, 0.5% Tween 40 and 0.05% Tween 80. Round bottom 96 well microplates were used. The inoculums were prepared in sterile saline and diluted to a final targeted concentration of 0.5×10^5 to 2.5×10^5 CFU/mL in supplemented RPMI. […] For the internal control isolate C. parapsilosis (ATCC 22019) the expected CLSI values for ketoconazole of 0.03-0.25 (at 24 hours) and 0.06-0.5 (at 48 hours) did agree with the 2-day value (Table A) of 0.5.

[3] = tested on: M. globose (ATCC MYA-4889); assay: as above; details: for MIC: read-out: minimum inhibition concentration (MIC)
Description: as §1, §2

[4] = tested on: C. parapsilosis (ATCC 22019); assay: as above; details: Lodderomyces parapsilosis, C. parapsilosis (22019), read-out: minimum inhibition concentration (MIC)
Description: as §1, §2

[5] = tested on: M. furfur (ATCC 12078); assay: as above; details: for MIC: Malassezia furfur, read-out: minimum inhibition concentration (MIC)
Description: as §1, §2

[6] = tested on: C. krusei (ATCC 6258); assay: as above; details: Pichia kudriavzevii, read-out: minimum inhibition concentration (MIC)
Description: as §1, §2

[7] = tested on: M. restricta (ATCC MYA-4611); assay: as above; details: for MIC: read-out: minimum inhibition concentration (MIC)
Description: as §1, §2

[8] = tested on: M. furfur (ATCC 44344); assay: as above; details: for MIC: Malassezia furfur, read-out: minimum inhibition concentration (MIC)
Description: as §1, §2

[9] = tested on: M. furfur (ATCC 14521); assay: as above; details: for MIC: Malassezia furfur, read-out: minimum inhibition concentration (MIC)
Description: as §1, §2

## C[C@]12CCC(=O)C=C1CC[C@@H]1[C@@H]2[C@@H](O)C[C@@]2(C)[C@H]1CC[C@]2(O)C(=O)CO [Hydrocortisone]
[1]
  anti-fungal activity (all isolates): no anti-fungal activity
[2]; ATCC90028, 12 h, Time 0.5 days
  MIC: > 1020 µg/mL
[2]; ATCC90028, 24 h, Time 1 days
  MIC: > 1020 µg/mL
[2]; ATCC90028, 48 h, Time 2 days
  MIC: > 1020 µg/mL
[2]; ATCC90028, 72 h, Time 3 days
  MIC: > 1020 µg/mL
[2]; ATCC90028, 96 h, Time 4 days
  MIC: > 1020 µg/mL
[2]; ATCC90028, 120 h, Time 5 days
  MIC: > 1020 µg/mL
[2]; ATCC90028, 144 h, Time 6 days
  MIC: > 1020 µg/mL
[2]; ATCC90028, 168 h, Time 7 days
  MIC: > 1020 µg/mL
[3]; 120 h, Time 5 days
  MIC: > 1020 µg/mL
[3]; 144 h, Time 6 days
  MIC: > 1020 µg/mL
[3]; 168 h, Time 7 days
  MIC: > 1020 µg/mL
[3]; Time 0.5 days
  minimum inhibition concentration (MIC): NGO
[3]; Time 1 days
  minimum inhibition concentration (MIC): NGO
[3]; Time 2 days
  minimum inhibition concentration (MIC): NGO
[3]; Time 3 days
  minimum inhibition concentration (MIC): NGO
[3]; Time 4 days
  minimum inhibition concentration (MIC): NGO
[4]; ATCC22019, 12 h, Time 0.5 days
  MIC: > 1020 µg/mL
[4]; ATCC22019, 24 h, Time 1 days
  MIC: > 1020 µg/mL
[4]; ATCC22019, 48 h, Time 2 days
  MIC: > 1020 µg/mL
[4]; ATCC22019, 72 h, Time 3 days
  MIC: > 1020 µg/mL
[4]; ATCC22019, 96 h, Time 4 days
  MIC: > 1020 µg/mL
[4]; ATCC22019, 120 h, Time 5 days
  MIC: > 1020 µg/mL
[4]; ATCC22019, 144 h, Time 6 days
  MIC: > 1020 µg/mL
[4]; ATCC22019, 168 h, Time 7 days
  MIC: > 1020 µg/mL
[5]; ATCC12078, 48 h, Time 2 days
  MIC: > 1020 µg/mL
[5]; ATCC12078, 72 h, Time 3 days
  MIC: > 1020 µg/mL
[5]; ATCC12078, 96 h, Time 4 days
  MIC: > 1020 µg/mL
[5]; ATCC12078, 120 h, Time 5 days
  MIC: > 1020 µg/mL
[5]; ATCC12078, 144 h, Time 6 days
  MIC: > 1020 µg/mL
[5]; ATCC12078, 168 h, Time 7 days
  MIC: > 1020 µg/mL
[5]; Time 0.5 days
  minimum inhibition concentration (MIC): NGO
[5]; Time 1 days
  minimum inhibition concentration (MIC): NGO
[6]; ATCC6258, 12 h, Time 0.5 days
  MIC: > 1020 µg/mL
[6]; ATCC6258, 24 h, Time 1 days
  MIC: > 1020 µg/mL
[6]; ATCC6258, 48 h, Time 2 days
  MIC: > 1020 µg/mL
[6]; ATCC6258, 72 h, Time 3 days
  MIC: > 1020 µg/mL
[6]; ATCC6258, 96 h, Time 4 days
  MIC: > 1020 µg/mL
[6]; ATCC6258, 120 h, Time 5 days
  MIC: > 1020 µg/mL
[6]; ATCC6258, 144 h, Time 6 days
  MIC: > 1020 µg/mL
[6]; ATCC6258, 168 h, Time 7 days
  MIC: > 1020 µg/mL
[7]; 120 h, Time 5 days
  MIC: > 1020 µg/mL
[7]; 144 h, Time 6 days
  MIC: > 1020 µg/mL
[7]; 168 h, Time 7 days
  MIC: > 1020 µg/mL
[7]; Time 0.5 days
  minimum inhibition concentration (MIC): NGO
[7]; Time 1 days
  minimum inhibition concentration (MIC): NGO
[7]; Time 2 days
  minimum inhibition concentration (MIC): NGO
[7]; Time 3 days
  minimum inhibition concentration (MIC): NGO
[7]; Time 4 days
  minimum inhibition concentration (MIC): NGO
[8]; ATCC44344, 48 h, Time 2 days
  MIC: > 1020 µg/mL
[8]; ATCC44344, 72 h, Time 3 days
  MIC: > 1020 µg/mL
[8]; ATCC44344, 96 h, Time 4 days
  MIC: > 1020 µg/mL
[8]; ATCC44344, 120 h, Time 5 days
  MIC: > 1020 µg/mL
[8]; ATCC44344, 144 h, Time 6 days
  MIC: > 1020 µg/mL
[8]; ATCC44344, 168 h, Time 7 days
  MIC: > 1020 µg/mL
[8]; Time 0.5 days
  minimum inhibition concentration (MIC): NGO
[8]; Time 1 days
  minimum inhibition concentration (MIC): NGO
[9]; ATCC14521, 48 h, Time 2 days
  MIC: > 1020 µg/mL
[9]; ATCC14521, 72 h, Time 3 days
  MIC: > 1020 µg/mL
[9]; ATCC14521, 96 h, Time 4 days
  MIC: > 1020 µg/mL
[9]; ATCC14521, 120 h, Time 5 days
  MIC: > 1020 µg/mL
[9]; ATCC14521, 144 h, Time 6 days
  MIC: > 1020 µg/mL
[9]; ATCC14521, 168 h, Time 7 days
  MIC: > 1020 µg/mL
[9]; Time 0.5 days
  minimum inhibition concentration (MIC): NGO
[9]; Time 1 days
  minimum inhibition concentration (MIC): NGO

Source: US11707454B2, “Topical roflumilast formulation having antifungal properties” (ARCUTIS BIOTHERAPEUTICS, INC., priority 2020, dated 2023)
